≈ marks a conversion by molar mass, not a printed value. Like-named read-outs stand apart in the source and are kept apart here.
Assays:
[1] = biological target: T1, plasma membrane H+ ATPase (Candida albicans, UniProt P28877); test: Measurement of intracellular pH (pHi); type: cell-based, C. albicans D15.9 (FLC-resistant); details: 100 μg/mL; untreated 6.4
T1 construct: endogenous in cells; host or cells: C. albicans ATCC 90028; clinical isolates C. albicans D27 (FLC-susceptible) and D15.9 (FLC-resistant); mid-log phase whole cells
T1 sequence (P28877 whole entry): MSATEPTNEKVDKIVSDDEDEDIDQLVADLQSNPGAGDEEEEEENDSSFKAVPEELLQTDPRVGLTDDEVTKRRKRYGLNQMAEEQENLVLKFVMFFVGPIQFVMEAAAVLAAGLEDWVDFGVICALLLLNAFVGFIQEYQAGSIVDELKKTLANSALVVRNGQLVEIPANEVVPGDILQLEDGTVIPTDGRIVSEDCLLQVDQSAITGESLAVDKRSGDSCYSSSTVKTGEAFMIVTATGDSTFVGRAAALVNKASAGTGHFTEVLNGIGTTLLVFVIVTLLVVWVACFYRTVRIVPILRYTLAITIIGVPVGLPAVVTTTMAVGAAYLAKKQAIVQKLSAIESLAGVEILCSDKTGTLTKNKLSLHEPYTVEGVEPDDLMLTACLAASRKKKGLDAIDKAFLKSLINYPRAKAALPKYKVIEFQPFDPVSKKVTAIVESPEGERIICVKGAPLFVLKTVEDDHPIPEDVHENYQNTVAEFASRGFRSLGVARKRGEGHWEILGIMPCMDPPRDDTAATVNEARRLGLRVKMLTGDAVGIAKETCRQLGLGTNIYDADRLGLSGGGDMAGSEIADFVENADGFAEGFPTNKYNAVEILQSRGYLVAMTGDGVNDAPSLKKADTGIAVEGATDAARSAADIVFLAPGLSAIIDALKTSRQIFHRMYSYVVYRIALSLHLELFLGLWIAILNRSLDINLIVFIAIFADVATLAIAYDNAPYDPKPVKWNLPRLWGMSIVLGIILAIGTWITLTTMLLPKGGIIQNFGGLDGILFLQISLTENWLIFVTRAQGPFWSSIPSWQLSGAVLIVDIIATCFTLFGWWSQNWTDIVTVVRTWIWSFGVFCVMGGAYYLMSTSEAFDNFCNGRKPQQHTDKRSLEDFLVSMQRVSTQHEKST
Procedure: In yeast cells, plasma membrane H^+-ATPase helps to maintain internal pH between 6.0 and 7.5. Intracellular pH (pHi) was measured as reported earlier by Manzoor et al.. Mid-log phase cells were harvested from SD medium and washed thrice with PBS. Subsequently, cells (0.1 g) were suspended in 5 mL solution of 0.1 M KCl, and 0.1 mM CaCl2 in distilled water. Compounds 3a and 3b were added to the suspension at a desired concentration of 100 μg/mL. […] Initial pH of the suspension was adjusted to 7.0 in each case and incubated for 30 min at 37°C with constant stirring. After incubation, the pH of suspension was again adjusted to 7.0 followed by the addition of nystatin (20 μM) and incubation at 37°C for 1 h. The change in pH of the suspension was monitored on a pH meter with constant stirring. The value of external pH at which nystatin permeabilization induced no further shift was taken as an estimate of pHi.

[2] = biological target: T1, plasma membrane H+ ATPase; test: Proton extrusion measurement (H+ efflux); type: cell-based, C. albicans D27 (FLC-susceptible)
Procedure: The proton pumping activity of C. albicans was determined by monitoring acidification of external medium by measuring pH as describe earlier. In brief, the mid-log phase cells were harvested from SD medium by centrifugation at 3000 rpm for 15 min which is followed by three washings with phosphate buffer saline (PBS). A solution containing 0.1 M KCl and 0.1 mM CaCl2 in distilled water was prepared. Compounds 3a and 3b at the concentrations of 50 and 100 μg/mL were separately added in this solution. […] Initial pH was adjusted to 7.0 using 0.01 M HCl/NaOH. Approximately 0.2 g of cells were suspended in each set of solution. Suspension was kept in a double-jacketed glass container with constant stirring. Again, the pH of suspension was maintained as 7.0 for 1 min by using 0.01 N NaOH. The rate of H^+ extrusion was then monitored and calculated from the volume of 0.01 N NaOH consumed per min per mg weight of cells. Glucose has been reported as the stimulator of proton extrusion pump. Therefore above experiment was also repeated in the presence of 5 mM of glucose.

[3] = tested on: ergosterol biosynthesis; test: Ergosterol estimation assay
[4] = tested on: C. albicans D31 (FLC-sensitive clinical isolate); test: Broth dilution IC50 determination; type: cell-based; details: Candida albicans, 24 h; read-out: Anti-Candida Activity (IC50± S.D.) C. albicans D31
Procedure: (§1) Broth dilution technique was employed to determine the IC50 values of all the synthesized 1,2,3 triazole derivatives (3a-c) against C. albicans ATCC 90028, C. glabrata ATCC 90030, C. tropicalis ATCC 750 and four clinical isolates of C. albicans namely D27, D31, D39 (FLC-sensitive) and D15.9 (FLC-resistant). The strains were maintained on yeast extract:peptone:dextrose ([…]) nutrient agar (2.5%) slants at 4°C. The test compounds were dissolved in DMSO with less than 4% concentration of it in the final test volume. Different concentrations (1000… 7.8 μg/mL) of test compounds in Sabouraud dextrose (SD) broth medium were dispensed into the wells, then inoculated with the test organism with approx. 2.5 × 10^3 cells/mL and incubated at 37°C for 24 h. After incubation period, the optical density was measured at 600 nm by using Thermo Scientific Multiskan Go plate reader. […] All the experiments were done in triplicate at separate times.

[5] = tested on: C. tropicalis ATCC 750; test: Broth dilution IC50 determination; type: cell-based; details: Candida tropicalis, ATCC750, SD broth, 37°C, 24 h, OD 600 nm, read-out: Anti-Candida Activity (IC50± S.D.) C. tropicalis ATCC750
Procedure: as §1

[6] = tested on: C. glabrata ATCC 90030; test: Broth dilution IC50 determination; type: cell-based; details: Nakaseomyces glabratus, ATCC90030, SD broth, 37°C, 24 h, OD 600 nm, read-out: Anti-Candida Activity (IC50± S.D.) C. glabrata ATCC90030
Procedure: as §1

[7] = tested on: C. albicans ATCC 90028 (Standard); test: Disk diffusion assay; type: cell-based; details: 48 h
Procedure: (§2) Disk diffusion assay was performed using C. albicans ATCC 90028 (standard), the two clinical isolates, C. albicans D27 (FLC-susceptible), and C. albicans D15.9 (FLC-resistant) for the lead inhibitors 3a and 3b. The C. albicans cells were inoculated into liquid SD medium and grown over night at 37°C. The cells were then centrifuged at 3000 rpm for 5 min, washed three times with PBS and then suspended in PBS again. Approximately, 10^5 cells/mL were inoculated into molten SD agar medium at 42°C and poured into 100-mm-diameter petriplates. Sterilized 4 mm disks of Whatman paper were placed on solid agar and 1, 2, and 4 μL of 3a and 2, 4, and 8 μL of 3b from the stock solution of 10 mg/mL were spotted on the disk. […] The diameter of zone of inhibition (ZOI) was recorded in millimetres after 48 h and was compared with that of control. This experiment was repeated thrice and values were shown in terms of mean ±standard error of mean.

[8] = tested on: C. albicans D15.9 (FLC-resistant); test: Disk diffusion assay; type: cell-based; details: 48 h
Procedure: as §2

[9] = tested on: C. albicans D27 (FLC-susceptible); test: Disk diffusion assay; type: cell-based; details: 48 h
Procedure: as §2

[10] = 50 μg/mL in presence of glucose (5 mM)
[11] = 100 μg/mL in presence of glucose (5 mM)
[12] = in the presence of glucose (5 mM), 100 μg/mL, read-out: Inhibition of H+ extrusion rate
[13] = read-out: Inhibition of H+ extrusion
[14] = Candida albicans, ATCC90028, 20 μg per disk
[15] = Candida albicans, ATCC90028, 40 μg per disk
[16] = Candida albicans, 40 μg per disk

SMILES: c1ccc(Cn2cc(COc3cccc4cccnc34)nn2)cc1 [Compound 3a]
- Intracellular pH (pHi) [1]: 5.4
- Range of relative H+ efflux rate [2, 10]: 21.60 ± 1.0 ×10^−6 mol min^−1 mg cells^−1
- Range of relative H+ efflux rate ([2]; 50 μg/mL, no glucose): 20.00 ± 1.0 ×10^−6 mol min^−1 mg cells^−1
- Range of relative H+ efflux rate [2, 11]: 19.30 ± 0.9 ×10^−6 mol min^−1 mg cells^−1
- Range of relative H+ efflux rate ([2]; 100 μg/mL, no glucose): 16.60 ± 0.8 ×10^−6 mol min^−1 mg cells^−1
- inhibition at 100 µg/mL [2, 12]: 52%
- inhibition at 100 µg/mL [2, 13]: 45%
- Mean decrease in total ergosterol content ([3]; above MIC/2, 16 h): 100%
- Mean decrease in total ergosterol content ([3]; at MIC/4, 16 h): 30%
- IC50 [4]: 3.3 ± 0.065 µg/mL (≈ 10.4 µM)
- IC50 [5]: 3.6 ± 0.07 µg/mL (≈ 11.4 µM)
- IC50 [6]: 12.02 ± 0.02 µg/mL (≈ 38 µM)
- Zone of Inhibition ([7]; 20 μg per disk): 35± 0.97 mm
- Zone of Inhibition ([7]; 40 μg per disk): 39± 1.12 mm
- zone of inhibition at 10 µg/disc ([7]; Candida albicans, ATCC90028, 10 μg per disk): 28 ± 0.72 mm
- zone of inhibition at 20 µg/disc [7, 14]: 35 mm
- zone of inhibition at 40 µg/disc [7, 15]: 39 mm
- Zone of Inhibition ([8]; 20 μg per disk): 26± 073 mm
- Zone of Inhibition ([8]; 40 μg per disk): 32± 1.28 mm
- zone of inhibition at 10 µg/disc ([8]; Candida albicans): 20 ± 0.21 mm
- zone of inhibition at 20 µg/disc ([8]; Candida albicans): 26 mm
- zone of inhibition at 40 µg/disc ([8]; Candida albicans): 32 mm
- Zone of Inhibition ([9]; 40 μg per disk): 26± 0.92 mm
- zone of inhibition at 20 µg/disc ([9]; Candida albicans): 19 ± 0.95 mm
- zone of inhibition at 10 µg/disc ([9]; Candida albicans, 10 μg per disk): 14 ± 0.7 mm
- zone of inhibition at 40 µg/disc [9, 16]: 26 mm

SMILES: Clc1ccc(OCc2cn(Cc3ccccc3)nn2)c2ncccc12 [Compound 3b, 8-((1-Benzyl-1H-1,2,3-triazol-4-yl)methoxy)-5-chloroquinoline]
- Intracellular pH (pHi) [1]: 4.7
- Range of relative H+ efflux rate [2, 10]: 22.30 ± 1.1 ×10^−6 mol min^−1 mg cells^−1
- Range of relative H+ efflux rate ([2]; 50 μg/mL, no glucose): 17.60 ± 0.8 ×10^−6 mol min^−1 mg cells^−1
- Range of relative H+ efflux rate [2, 11]: 19.30 ± 0.9 ×10^−6 mol min^−1 mg cells^−1
- Range of relative H+ efflux rate ([2]; 100 μg/mL, no glucose): 16.00 ± 0.8 ×10^−6 mol min^−1 mg cells^−1
- inhibition at 100 µg/mL [2, 12]: 52%
- inhibition at 100 µg/mL [2, 13]: 65%
- Decrease in total ergosterol content ([3]; at MIC, 16 h): 100%
- Decrease in total ergosterol content ([3]; at MIC/2, 16 h): 98%
- Mean decrease in total ergosterol content ([3]; at MIC/4, 16 h): 23%
- IC50 [4]: 41.5 ± 1.24 µg/mL (≈ 118 µM)
- IC50 [5]: 23.6 ± 0.83 µg/mL (≈ 67.3 µM)
- IC50 [6]: 73.3 ± 1.41 µg/mL (≈ 209 µM)
- Zone of Inhibition ([7]; 80 μg per disk): 29± 0.93 mm
- zone of inhibition at 20 µg/disc [7, 14]: 18 ± 0.72 mm
- zone of inhibition at 40 µg/disc [7, 15]: 25 ± 0.9 mm
- zone of inhibition at 80 µg/disc ([7]; Candida albicans, ATCC90028, 80 μg per disk): 29 mm
- Zone of Inhibition ([8]; 80 μg per disk): 22± 0.79 mm
- zone of inhibition at 20 µg/disc ([8]; Candida albicans): 15 ± 0.21 mm
- zone of inhibition at 40 µg/disc ([8]; Candida albicans): 18 ± 0.09 mm
- zone of inhibition at 80 µg/disc ([8]; Candida albicans): 22 mm
- Zone of Inhibition ([9]; 80 μg per disk): 26± 1.17 mm
- zone of inhibition at 20 µg/disc ([9]; Candida albicans, 20 μg per disk, read-out: Zone of Inhibition): 16 ± 0.54 mm
- zone of inhibition at 40 µg/disc [9, 16]: 18 ± 0.87 mm
- zone of inhibition at 80 µg/disc ([9]; Candida albicans, 80 μg per disk): 26 mm

Reference: publication PMC5400251, “Effect of quinoline based 1,2,3-triazole and its structural analogues on growth and virulence attributes of Candida albicans” (PLoS ONE, 2017)
